Data on one molecule can be found in article PMC10305181, “A VEGFB-Based Peptidomimetic Inhibits VEGFR2-Mediated PI3K/Akt/mTOR and PLCγ/ERK Signaling and Elicits Apoptotic, Antiangiogenic, and Antitumor Activities” (Pharmaceuticals, 2023).

One assay deals with HUVECs. Nature of the assay: tube formation assay on Matrigel, HUVECs. Particulars: 0.40 μM; 12 h; VEGF 20 ng·mL^−1; n = 3; p < 0.001. The format is cell-based, human. How it is done: Figure 4 Inhibition of EC proliferation and tubulogenesis by C-VGB3 through abrogation of VEGFR2-mediated signaling pathways. (A) MTT assay was performed to investigate C-VGB3 effect on the proliferation of ECs. C-VGB3 (0–0.91 μM) was used with (20 ng·mL^−1) or without VEGF. The control cells were treated with no peptide. After 24 and 48 h, the absorbance was measured at 570 nm utilizing an ELISA plate reader (Space Fax 2100, Awareness, Westport, CT, USA). Error bars indicate ± SEM. n = 3; * p = 0.02, ** p = 0.001, *** and ### p = 0.0001, **** and #### p < 0.0001, ns = not significant; one-way ANOVA. (B) The anti-tubulogenesis effect of C-VGB3 in VEGF (20 ng·mL^−1)-induced HUVECs. Image analysis performed by Wimasis image analysis software is illustrated in the bottom panel. Error bars indicate ±SEM. n = 3; *** 0.0004 ≤ p ≤ 0.0001; unpaired Student’s t-test. To evaluate the mechanism by which C-VGB3 diminished cell proliferation and tube formation, Western blot analysis was performed for HUVECs. […] Error bars indicate ± SEM. n = 3; * p = 0.02, ** p = 0.001, *** p = 0.0001, **** p < 0.0001; one-way ANOVA. […] Error bars indicate ± SEM. n = 3; * p = 0.02, ** p = 0.001, **** p < 0.0001; one-way ANOVA.
Tube formation of HUVECs was assayed on the Matrigel. After pre-labeling with PKH26 cell tracker (Sigma-Aldrich, St. Louis, MO, USA) HUVECs were plated into 24-well plates pre-coated with Matrigel Basement Membrane Matrix (BD Biosciences, San Jose, CA, USA). C-VGB3 (0.40 μM) was added to the medium, and images were manually captured after 12 h using an Olympus BX-51 fluorescence microscope. Quantitative analyses were performed by Wimasis online software.

The next assay deals with Ki67-positive cells. The experiment in a line: Ki67 immunohistochemistry of 4T1 tumors (proliferation). The format is in vivo, murine. Particulars: 0.2 mg·kg^−1 i.v.; n = 3; p = 0.04 vs control. How it is done: Figure 2 Loop formation is important for the antitumor activity of VGB3. (A) To investigate the efficacy of VGB3 peptides in vivo 13 days after transplantation of a 4T1 murine MCT into female BALB/c mice (the tumor volume ~150 mm^3), the treatment groups received 0.2 mg·kg^−1 (once every 2 days, i.v.) of either the C-VGB3 or L-VGB3 and the control group received PBS for 20 days. Error bars denote ± SEM. n = 6; **** p < 0.0001, ns = not significant; two-way ANOVA. (B) Investigation of C-VGB3 and L-VGB3 effects on mice weight. […] (C,D) Immunohistochemical (IHC) analyses of CD31 and Ki67 for the C-VGB3-, L-VGB3- and PBS-treated tumors. For IHC staining, the sections of tumor tissues were incubated with the primary mouse monoclonal antibodies for CD31 (1:2000 (v/v)) and Ki67 (5 µg·mL^−1). […] Photographs were taken at 40× magnification. Error bars denote ± SEM. n = 3; * 0.02 ≤ p ≤ 0.04, ns = not significant; one-way ANOVA.
For immunohistochemistry staining, deparaffinized tumor sections were incubated overnight at 4 °C with mouse monoclonal primary anti-Ki67 (5 µg·mL^−1) or anti-CD31 (1:2000 (v/v)). The antigens were detected using 3,3-diaminobenzidine. All images were captured and analyzed with an Olympus BX51 microscope (Olympus America, New York, NY, USA).

Assay [1] relates to extracellular domain of VEGFR2 (KDR). The experiment in a line: ELISA-based displacement (competition binding) of biotinylated VEGF from VEGFR2. Particulars: ELISA, n = 3. The method, then: Figure 3 The binding affinity of C-VGB3 to VEGFR2. (A) ELISA-based displacement assay. The gradient concentrations of C-VGB3 (0, 0.316, 1, 3.16, 10, 31.6, 100, and 316 μM) were used in the assay. […] Error bars denote ± SEM. n = 3; ** p = 0.001, *** p = 0.0001, **** p < 0.0001, ns = not significant; one-way ANOVA. (B) A three-dimensional (produced by UCSF chimera software version 1.12) and a two-dimensional representation (produced by LigPlot software) of interactions in the C-VGB3/VEGFR2 complex is shown on the left and the right, respectively.
A displacement assay was conducted as reported previously with some modifications, including using 20 ng of the VEGFR2 extracellular domains (R&D Systems, Minneapolis, MN, USA). Peptide compounds were assayed three times per experiment.
Figure S6. Evaluating the binding capability of L-VGB3 to VEGFR2
(A) ELISA-based displacement assay. The gradient concentrations of L-VGB3 (3.16, 10, […]
to the extracellular domain of VEGFR2 at applied concentrations. (B) Two-dimensional representation of interactions (produced by LigPlot software) in L-VGB3/VEGFR2 […]

Another assay deals with ectodomain of VEGFR1. The conditions noted are these: ref [9], cited from earlier work. How it is done: Our previous study has shown that a peptide reproducing helix α1 of VEGFB can unexpectedly interfere with VEGF binding to VEGFR2 and, consequently, inhibit VEGF-stimulated angiogenesis and tumor growth. In the present study, we extend this observation using another peptide (C-VGB3) that mimics loop2 and its adjacent region of VEGFB. […] For instance, competitive binding of C-VGB3 (100 μM) with biotinyl ...

Each structure is given as a SMILES string. Bridge positions count the residues as written; N and C are the ends. Peptide text beside a SMILES is read from it.

`CC(C)C[C@@H]1NC(=O)CNC(=O)[C@H](CC(=O)O)NC(=O)[C@H](CC(=O)O)NC(=O)[C@@H]2CCCN2C(=O)[C@@H]2CCCN2C(=O)[C@H](CCCNC(=N)N)NC(=O)[C@@H](NC(=O)[C@@H](N)CCC(=O)O)CSSC[C@@H](C(=O)O)NC1=O` [C-VGB3] (H-ECRPPDDGLC-OH; disulfide 2-10): in the assay with HUVECs, the “decrease in tube branching points” value is 81.46%, the “decrease in tube length” value is 44.37% and the “decrease in tube numbers” value worked out at 58.64%. In addition, in the assay with Ki67-positive cells, the “decrease in Ki67-positive cells” value is given as 60%. In addition, the “inhibition of binding of bt-VEGF to KDR” value in assay [1] (0-316 μM) is “inhibits the binding of biotinylated VEGF (bt-VEGF) to KDR dose-dependently”. Also, the “displacement of btVEGF165” value in assay [1] (100 μM, ectodomain of VEGFR2) was 58%. Further, the “displacement of btVEGF165” value with ectodomain of VEGFR1 (100 μM, ectodomain of VEGFR1) is 63%. Also, the “binding to VEGFR1” value in the assay with ectodomain of VEGFR1 was “bind and neutralize VEGFR1”.
